# Measurements published in patent US20080051413A1, “Nitrophenylpiperazine derivative of xanthine which relaxes tracheal airway and increases respiratory performance” (KAOHSIUNG MEDICAL UNIVERSITY, priority 2006, published 2008).
# Values joined by “and” are separate entries in the source; they are usually repeats but may differ in a detail not shown here. Identical values can stand only once.
# Experiments:
# [1] = test system: carbachol (1 _M)-precontracted guinea pig trachea; experiment: Isolated tracheal preparation, measurement of tension
# Protocol: Isolated Tracheal preparation and Measurement of Tension: Guinea pigs (350-450 g) were anesthetized with pentobarbital (70 mg/kg) i.p. and killed by a sharp blow on the neck, followed by cervical dislocation. The trachea was excised, cleaned of adhering fat and connective tissue, cut transversely into four to five rings, and then opened by cutting longitudinally through the cartilage rings diametrically opposite the tracheal smooth muscle (Hwang T L, Wu C C, and Teng C M (1999) YC-1 potentiates nitric oxide-induced relaxation in guinea-pig trachea. Br J Pharmacol 128:577-584). Then trachea rings were suspended in a 10-ml organ bath containing Krebs' solution (118 mM NaCl, 25 mM NaHCO3, 4.7 mM KCl, 1.2 mM KH2PO4, 1.2 mM MgSO4, 11 mM glucose, and 2.5 mM CaCl2, pH 7.3-7.4) maintained at 37_and aerated with 95% O2 and 5% CO2. Each tracheal tissue sample was subjected to 2 g of initial basal tension. All experiments were carried out in the presence of indomethacin (3 _M) and propranolol (1 _M) to prevent the formation of prostanoids and to inhibit _-adrenergic responses, respectively. Isometric tension was recorded with a force displacement transducer (model FT03; Grass Instruments, Quincy, M A). Before the start of measurements, all preparations were allowed to equilibrate with frequent washing for 1 h. They were first contracted with carbachol (1 _M) to determine the contractility of preparations. This was also done at the end of each experiment. The preparations were then washed and allowed to equilibrate with Krebs' solution for 50 min before being contracted a second time with carbachol (1 _M). When stable constriction to carbachol was reached, concentration responses of KMUP-3 (10, 30, and 100 _M) were obtained. Data were expressed as percentages of the maximum contractile response to carbachol (1 _M).
# In experiments to examine the role of epithelium in tracheal relaxation, the epithelial cells were removed mechanically by rubbing the internal surface of trachea with a fine silver wire, and the removal of the epithelial layer was confirmed by histological examination as previously described (Wu et al., 2004).
# To examine the possible mechanism of tracheal relaxant effects of KMUP-3, the tracheal strips were pretreated with a K^+ channel blocker, tetraethylammonium (TEA; 10 mM); a KATP channel blocker, glibenclamide (1-M); voltage-dependent K^+ channel blocker, 4-aminopyridine (4-AP, 100 _M); Ca^2+-dependent K^+ channel blockers, apamin (1 _M) and charybdotoxin (ChTX; 0.1 _M); a sGC inhibitor, 1H-[1,2,4]oxadiazolo[4,3-a]quinoxalin-1-one (ODQ; 1 _M); an NOS inhibitor, N—nitro-L-arginine methyl ester (L-NAME; 100 _M); and an adenylate cyclase (AC) inhibitor, SQ 22536 (100 _M) for 30 min prior to the addition of KMUP-3 (10, 30, and 100 _M). In the other experiments, TSMs were precontracted with 60 mM KCl to examine the relaxation achieved by KMUP-3. The KCl solution was prepared by substituting NaCl with KCl (60 mM) in an equimolar amount.
# [2] = molecular target: T1, PDE5 purified from human platelets (Homo sapiens, UniProt O76074); experiment: Phosphodiesterase activity, PDE5; assay type: biochemical; conditions: 10 _M compound, n = 3
# T1 construct: PDE3 and PDE5 purified from human platelets; from tissue; host or cells: human platelets
# Protocol: The reaction was terminated by boiling for 2 min, and the resulting GMP was converted to adenosine by the addition of 10 mg/ml snake venom nucleotidase, which was followed by a further incubation at 37_ for 10 min. Unhydrolyzed cGMP was bound to AG1-X2 resin, and the remaining [^3H]guanosine in the aqueous phase was quantitated by scintillation counting.
# [3] = test system: guinea pig tracheal smooth muscle cells; experiment: Measurement of cGMP in TSMCs; assay type: cell-based; conditions: for GMP level: basal 1.18±0.06
# Protocol: Cell Culture of Tracheal Smooth Muscle: Guinea pigs (350-450 g) were injected i.p. with a lethal dose of pentobarbital. The tracheas were excised and cut longitudinally through the cartilage. Using a dissecting microscope, TSM strips were dissected from the surrounding parentchyma. The epithelium was removed from the luminal surface, and bands of TSM were gently separated from the underlying connective tissue. Then TSM strips were chopped into small sections (1 mm^3) and incubated in Hanks' balanced salt solution (138 mM NaCl, 4 mM NaHCO3, 5 mM KCl, 0.3 mM KH2PO4, 0.3 mM Na2HPO4, and 1.0 mM glucose) with 0.05% elastase type IV and 0.2% collagenase type IV (Invitrogen, Carlsbad, Calif.) for 30 min at 37_ with gentle shaking. The solution of dissociated smooth muscle cells was centrifuged (6 min at 500 g), and the pellet was resuspended in 1:1 Dulbecco's modified Eagle's medium/Ham's F-12 medium supplemented with 10% fetal bovine serum, 0.244% NaHCO3, and 1% penicillin/streptomycin. Cells were cultured in 25-cm^2 flasks at 37_ in humidified air containing 5% CO2. Confluent cells were detached with 0.25% trypsin-0.02% EDTA at 37_and then subcultured to establish secondary cultures. Cultures were maintained for no more than four passages. They were identified as smooth muscle cells by the typical hill-and-valley appearance, and cellular homogeneity was further confirmed by the presence of smooth muscle specific _-myosin and _-actin immunoreactivity. Indirect immunofluorescence staining for a variety of antigens was carried out by first plating the cells on chamber slides, fixing the cells in 3.7% formaldehyde-phosphate-buffered saline for 10 min, and permeabilizing the cells with phosphate-buffered saline and 0.1% Triton X-100. Cells were then stained with either a mouse monoclonal antibody directed against the amino-terminal 10 amino acids of _-smooth muscle actin or _-myosin (Roche Diagnostics, Indianapolis, Ind.). All cells were stained with fluorescein-labeled goat anti-mouse IgG antibody (Roche Diagnostics).
# Measurement of cAMP and cGMP: Intracellular concentrations of cAMP and cGMP in TSMCs were measured as in our previous reports (Wu B N, Lin R J, Lin C Y, Shen K P, Chiang L C, and Chen I J (2001) A xanthine-based KMUP-1 with cyclic GMP enhancing and K^+ channels opening activities in rat aortic smooth muscle. Br J Pharmacol 134:265-274; Lin R J, Wu B N, Lo Y C, Shen K P, Lin Y T, Huang C H, and Chen I J (2002) KMUP-1 relaxes rabbit corpus cavernosum smooth muscle in vitro and in vivo: involvement of cyclic GMP and K(+) channels, Br J Pharmacol 135:1159-1166). In brief, cells were finally grown in 24-well plates (10^5 cells/well). At confluence, monolayer cells were washed with phosphate-buffered saline and then incubated with KMUP-3 (0.01-100 _M) for 20 min at 37_ in medium. […] The reaction was terminated by replacement of medium with 1 ml of ice-cold 1 N hydrochloric acid. Cells suspensions were sonicated and then centrifuged at 2500 g for 15 min at 4_. Then, the supernatants were lyophilized and the cAMP and cGMP of each sample were determined using commercially available radioimmunoassay kits (GE Healthcare, Little Chalfont, Buckinghamshire, UK).
smiles,measurement,setting,value
Cn1c(=O)c2c(ncn2CCN2CCN(c3ccc([N+](=O)[O-])cc3)CC2)n(C)c1=O [KMUP-3],relaxation response after epithelium denudation (FIG. 3(A)),"[1]; 10, 30, 100 _M, EP− versus EP+",significant decrease in the relaxation response
same,"relaxation, concentration response","[1]; 10, 30, 100 _M, carbachol- or high-K+-contracted EP+ TSM, also epithelium-denuded",concentration-dependent relaxation
same,relaxation of TSM strips,"[1]; 100 _M, carbachol (1 _M)-precontracted",up to 130%
same,relaxation in epithelium-intact trachea (FIG. 3(B)),"[1]; 100 _M, carbachol (1 _M)-precontracted, EP+",cause relaxations
same,"relaxation in presence of ODQ (1 _M), L-NAME (100 _M) or SQ 22536 (100 _M) (FIG. 5)","[1]; 30 min pretreatment, EP+ TSM",attenuated
same,relaxation against carbachol-induced contractions in presence of K+ channel blockers (FIGS. 4(A)-4(E)),"[1]; pretreatment with TEA, glibenclamide, 4-AP, apamin or ChTX, EP+",inhibited
same,PDE5 Inhibition,[2],48 ± 1.9 %
same,GMP level,"[3]; 0.01 _M, 20 min",1.62±0.05 pmol/mg protein
same,GMP level,"[3]; 0.1 _M, 20 min",1.73±0.01 pmol/mg protein
same,GMP level,"[3]; 1 _M, 20 min",1.75±0.04 pmol/mg protein
same,GMP level,"[3]; 10 _M, 20 min",1.86±0.05 pmol/mg protein
same,Cyclic GMP level in presence of L-NAME,[3]; 100 _M compound plus L-NAME (100 _M) pretreatment,1.28 ± 0.01 pmol/mg protein
same,Cyclic GMP level in presence of ODQ,[3]; 100 _M compound plus ODQ (10 _M) pretreatment,1.35 ± 0.04 pmol/mg protein
same,amounts of cGMP versus vehicle (FIG. 6),"[3]; 100 _M, 20 min",significantly enhances
same,Cyclic GMP level,"[3]; 100 _M, 20 min, basal/vehicle 1.18±0.06",1.98±0.09 pmol/mg protein and 1.98 ± 0.08 pmol/mg protein
